As usually defined, the Dmax is the greatest extent of degradation seen. Broadly, the DC50 is the midpoint of the concentration-degradation curve.

The source of these data is patent US20230135894A1, “MK2 DEGRADERS AND USES THEREOF” (Kymera Therapeutics, Inc., priority 2021, published 2023).

For assay [1], the target named is T1, MK2 (Homo sapiens, UniProt P49137). The assay can be described thus: MK2 degradation in human THP-1 monocytic cells (MSD, 24 h). The format is cell-based. Set-up: endogenous in cells. To be noted: for Dmax: THP-1, THP-1 cells; for DC50: THP-1 cells, read-out: MK2 MSD THP-1 degradation 24 h GMean External Abs DC50. The essentials:
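THP-1 cells (200,000/well) treated 24 h at 37 °C with compound dilution series (up to 10 points, 0.1% DMSO). MK2 in RIPA lysates quantified by MSD sandwich immunoassay. DC50 from 4-parameter logistic fit, DMSO-treated cells as high and lysis buffer as low signal.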

In assay [2] the target is T1, MK2. The assay can be described thus: MK2 degradation in human SW1353 cells (MSD, 24 h). The format is cell-based. Set-up: endogenous in cells; host or cells: SW-1353 (ATCC HTB-94); key to MK2 MSD SW1353 degradation 24 h GMean External Abs DC50: A (<0.001 μM); B (0.001-0.01 μM); C (0.01-0.1 μM); D (>0.1 μM); —: “-”=not tested or inactive; key to MK2 MSD SW 1353 24 h Dmax %: —: “-”=not tested or inactive. To be noted: for Dmax: read-out: MK2 MSD SW 1353 24 h Dmax %; for DC50: read-out: MK2 MSD SW1353 degradation 24 h GMean External Abs DC50. The essentials:
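SW1353 chondrosarcoma cells were treated with up to 10-point serial dilutions (0.1% DMSO) for 24 h at 37 °C, then lysed in RIPA buffer. MK2 levels were quantified by MSD sandwich immunoassay; DC50 came from a 4-parameter logistic fit normalised to DMSO-treated cells (high) and lysis buffer (low).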

Each structure is given as a SMILES string.

T1 sequence (P49137 whole entry): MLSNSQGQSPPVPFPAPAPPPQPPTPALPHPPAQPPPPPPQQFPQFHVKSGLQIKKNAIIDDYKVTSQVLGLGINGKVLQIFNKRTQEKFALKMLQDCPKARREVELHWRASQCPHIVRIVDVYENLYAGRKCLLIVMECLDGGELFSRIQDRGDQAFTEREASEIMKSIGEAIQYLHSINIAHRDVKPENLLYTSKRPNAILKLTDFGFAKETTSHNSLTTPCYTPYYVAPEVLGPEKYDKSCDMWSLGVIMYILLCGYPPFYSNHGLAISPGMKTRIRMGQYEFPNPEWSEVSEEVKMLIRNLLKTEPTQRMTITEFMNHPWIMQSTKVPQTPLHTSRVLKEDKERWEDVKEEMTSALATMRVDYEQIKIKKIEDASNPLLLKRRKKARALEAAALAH

On to `C[C@@H]1CNc2c(sc3ccc4nc(-c5cncc(N6CCN(CCCCCCCc7cccc8c7n(C)c(=O)n8C7CCC(=O)NC7=O)CC6)c5)ccc4c23)C(=O)N1` (some centres unmarked) [Compound I-158], for which, on MK2 [1], the Dmax was greater than 75% and the DC50 was less than 1 nM. Besides, at MK2 [2], the Dmax was greater than 75% and the DC50 lay in the range of 1 to 10 nM.

Turning to `C[C@@H]1CNc2c(sc3ccc4nc(-c5cc(N6CCN(CC7CCN(c8ccc9c(c8)n(C)c(=O)n9C8CCC(=O)NC8=O)CC7)CC6)nc(C(C)(C)O)c5)ccc4c23)C(=O)N1` (some centres unmarked) [Compound I-219], on MK2 [1], the Dmax is less than 50% and the DC50 is greater than 100 nM. Moreover, at MK2 [2], the Dmax was less than 50% and the DC50 was greater than 100 nM.

Turning to `CN1CCc2[nH]c(-c3ccnc(-c4ccc(N5CCN(CC6CCN(c7ccc8c(c7)n(C)c(=O)n8C7CCC(=O)NC7=O)CC6)CC5)cc4)c3)cc2C1=O` (centres unmarked) [Compound I-450], at MK2 [1], the Dmax is less than 50% and the DC50 was greater than 100 nM. For the same compound, on MK2 [2], the Dmax was less than 50% and the DC50 is greater than 100 nM.

In the case of `Cn1c(=O)n(C2CCC(=O)NC2=O)c2ccc(N3CCC(CN4CCN(c5cc(C#N)cc(-c6cc(-c7cc8c([nH]7)CCNC8=O)ccn6)c5)CC4)CC3)cc21` (centres unmarked) [Compound I-225], at MK2 [1], the Dmax is less than 50% and the DC50 was greater than 100 nM. For the same compound, at MK2 [2], the Dmax was less than 50% and the DC50 is greater than 100 nM.

As to `C[C@@H]1CNc2c(sc3ccc4nc(-c5ccc(N6CCN(CC7CCN(c8ccc(C9CCC(=O)NC9=O)cc8)CC7)CC6)nc5)ccc4c23)C(=O)N1` (some centres unmarked) [Compound I-421], the Dmax on MK2 [1] and on MK2 [2] was greater than 75% throughout. Also, the DC50 on MK2 [1] and at MK2 [2] was 1 to 10 nM each time.

In the case of `C[C@@H]1CNc2c(sc3ccc4nc(-c5ccc(N6CCN(CC7CN(c8ccc9c(c8)n(C)c(=O)n9C8CCC(=O)NC8=O)C7)CC6)cc5Cl)ccc4c23)C(=O)N1` (some centres unmarked) [Compound I-235], the Dmax at MK2 [1] and at MK2 [2] was greater than 75% in each case. For the same compound, the DC50 at MK2 [1] and on MK2 [2] was less than 1 nM throughout.

On to `Cc1cc(N2CCC(CN3CCN(c4ccc5c(c4)n(C)c(=O)n5C4CCC(=O)NC4=O)CC3)CC2)ccc1-c1ccc2c(ccc3sc4c(c32)NC[C@@H](C)NC4=O)n1` (some centres unmarked) [Compound I-298], for which, at MK2 [1], the Dmax was greater than 75% and the DC50 was less than 1 nM. Also, at MK2 [2], the Dmax is greater than 75% and the DC50 is less than 1 nM.

Regarding `C[C@@H]1CN(C)c2c(sc3ccc4nc(-c5ccc(N6CCN(CCc7cccc8c7n(C)c(=O)n8C7CCC(=O)NC7=O)CC6)cc5)ccc4c23)C(=O)N1` (some centres unmarked) [Compound I-413], the Dmax on MK2 [1] and on MK2 [2] was greater than 75% throughout. In addition, the DC50 on MK2 [1] was less than 1 nM; at MK2 [2], 1 to 10 nM.

Consider `C[C@@H]1CNc2c(sc3ccc4nc(-c5cccc(N6CCC(CN7CCC(c8cccc9c(N%10CCC(=O)NC%10=O)cncc89)CC7)CC6)c5)ccc4c23)C(=O)N1` [Compound I-312], for which the Dmax on MK2 [1] and at MK2 [2] was greater than 75% each time. Also, the DC50 on MK2 [1] and at MK2 [2] was 1 to 10 nM throughout.

For `C[C@@H]1CNc2c(sc3ccc4nc(-c5cccc(N6CCC(CN7CCN(c8ccc9c(c8)CN(C8CCC(=O)NC8=O)C9=O)CC7)CC6)c5)ccc4c23)C(=O)N1` (some centres unmarked) [Compound I-304], at MK2 [1], the Dmax was greater than 75% and the DC50 lay in the range of 1 to 10 nM. Further, on MK2 [2], the Dmax is greater than 75% and the DC50 lay within 1 to 10 nM.

As for `C[C@@H]1CNc2c(sc3ccc4nc(-c5ccc(C#CCCNC(=O)CCCCCCCc6ccc7c(c6)n(C)c(=O)n7C6CCC(=O)NC6=O)cc5)ccc4c23)C(=O)N1` (some centres unmarked) [Compound I-55], on MK2 [1], the Dmax was greater than 75% and the DC50 lay within 1 to 10 nM. For the same compound, on MK2 [2], the Dmax is greater than 75% and the DC50 lay in the range of 1 to 10 nM.

With `C[C@@H]1CNc2c(sc3ccc4nc(-c5ccc(N6CCC(CN7CCN(c8ccc9c(c8)n(C)c(=O)n9C8CCC(=O)NC8=O)CC7)CC6)cc5)ccc4c23)C(=O)N1` (some centres unmarked) [Compound I-314], the Dmax on MK2 [1] and at MK2 [2] was greater than 75% throughout. Besides, the DC50 at MK2 [1] and at MK2 [2] was less than 1 nM in each case.

On to `C[C@@H]1CNc2c(sc3ccc4nc(N5C6CCC5CN(CC5CCN(c7cccc8c7n(C)c(=O)n8C7CCC(=O)NC7=O)CC5)C6)ccc4c23)C(=O)N1` (some centres unmarked) [Compound I-435], for which, at MK2 [1], the Dmax is less than 50% and the DC50 is greater than 100 nM. At MK2 [2], the “MK2 MSD SW 1353 24 h Dmax %” value is listed as “—” and the DC50 was greater than 100 nM.

For the compound `Cc1cc(-c2cc(-c3cc4c([nH]3)C3(CC3)CNC4=O)ccn2)cc(C)c1N1CCN(CC2CCN(c3ccc4c(c3)n(C)c(=O)n4C3CCC(=O)NC3=O)CC2)CC1` (centres unmarked) [Compound I-194], on MK2 [1], the Dmax was greater than 75% and the DC50 is less than 1 nM. Moreover, at MK2 [2], the Dmax is greater than 75% and the DC50 is less than 1 nM.

With `C[C@@H]1CNc2c(sc3ccc4nc(-c5ccc(N6CCN(CCCc7ccc8c(c7)n(C)c(=O)n8C7CCC(=O)NC7=O)CC6)nc5)ccc4c23)C(=O)N1` (some centres unmarked) [Compound I-287], at MK2 [1], the Dmax is greater than 75% and the DC50 was less than 1 nM. Also, on MK2 [2], the Dmax is greater than 75% and the DC50 was less than 1 nM.

Regarding `C[C@@H]1CNc2c(sc3ccc4nc(-c5ccc(N6CCN(C7CC(c8cccc9c8n(C)c(=O)n9C8CCC(=O)NC8=O)C7)CC6)cc5)ccc4c23)C(=O)N1` (some centres unmarked) [Compound I-246], at MK2 [1], the Dmax was greater than 75% and the DC50 was less than 1 nM. In addition, at MK2 [2], the Dmax was greater than 75% and the DC50 is less than 1 nM.

In the case of `Cn1c(=O)n(C2CCC(=O)NC2=O)c2ccc(C3CCN(CC4CCN(c5ccc(-c6cc(-c7cc8c([nH]7)CCNC8=O)ccn6)c(F)c5)CC4)CC3)cc21` (centres unmarked) [Compound I-305], on MK2 [1], the Dmax is greater than 75% and the DC50 was less than 1 nM. Further, at MK2 [2], the Dmax was greater than 75% and the DC50 is less than 1 nM.

`C[C@@H]1CNc2c(sc3ccc4nc(-c5cncc(N6CCN(C(=O)COCCOCCc7cccc8c7n(C)c(=O)n8C7CCC(=O)NC7=O)CC6)c5)ccc4c23)C(=O)N1` (some centres unmarked) [Compound I-100]: at MK2 [1], the Dmax was greater than 75% and the DC50 was 1 to 10 nM. Besides, at MK2 [2], the Dmax was greater than 75% and the 50% degradation concentration (DC50) lay within 1 to 10 nM.

Turning to `Cn1c(=O)n(C2CCC(=O)NC2=O)c2cccc(N3CCC(CN4CCC5(CC4)CNC(=O)c4c5[nH]c5c4CCc4cnc(-c6ccccc6F)cc4-5)CC3)c21` (centres unmarked) [Compound I-316], the Dmax on MK2 [1] and at MK2 [2] was less than 50% each time. The DC50 on MK2 [1] and on MK2 [2] was greater than 100 nM throughout.

Take `C[C@@H]1CNc2c(sc3ccc4nc(-c5ccc(CNC(=O)CCCCCCCCCc6cccc7c6n(C)c(=O)n7C6CCC(=O)NC6=O)cc5)ccc4c23)C(=O)N1` (some centres unmarked) [Compound I-86]: the Dmax on MK2 [1] and on MK2 [2] was greater than 75% each time. In addition, the DC50 on MK2 [1] and at MK2 [2] was 1 to 10 nM in each case.

For the compound `C[C@@H]1CNc2c(sc3ccc4nc(-c5cccc(N6CCN(CCCCCc7cccc8c7n(C)c(=O)n8C7CCC(=O)NC7=O)CC6)c5)ccc4c23)C(=O)N1` (some centres unmarked) [Compound I-94], the Dmax at MK2 [1] and at MK2 [2] was greater than 75% in each case. Also, the half-maximal degradation concentration (DC50) at MK2 [1] was less than 1 nM; at MK2 [2] it was 1 to 10 nM.

As to `C[C@@H]1CNc2c(sc3ccc4nc(-c5cccc(C#CCCNC(=O)COCCOCCOCCOCCc6ccc7c(c6)n(C)c(=O)n7C6CCC(=O)NC6=O)c5)ccc4c23)C(=O)N1` (some centres unmarked) [Compound I-51], at MK2 [1], the Dmax was greater than 75% and the DC50 was in the range of 1 to 10 nM. Besides, on MK2 [2], the Dmax is greater than 75% and the DC50 is 1 to 10 nM.

Take `C[C@@H]1CNc2c(sc3ccc4nc(-c5cccc(N6CCN(CCCCCCCc7cccc8c7n(C)c(=O)n8C7CCC(=O)NC7=O)CC6)c5)ccc4c23)C(=O)N1` (some centres unmarked) [Compound I-95]: at MK2 [1], the Dmax was greater than 75% and the DC50 was less than 1 nM. Further, on MK2 [2], the Dmax is greater than 75% and the DC50 was in the range of 1 to 10 nM.

Turning to `O=C1CCN(c2cncc3c(N4CCN(CC5CCN(c6ccc(-c7cc(-c8cc9c([nH]8)CCNC9=O)ccn7)cc6)CC5)CC4)cccc23)C(=O)N1` [Compound I-198], at MK2 [1], the Dmax was greater than 75% and the DC50 fell in the range of 10 to 100 nM. Further, on MK2 [2], the “MK2 MSD SW 1353 24 h Dmax %” value is reported as “—” and the “MK2 MSD SW1353 degradation 24 h GMean External Abs DC50” value is listed as “—”.

Take `Cn1c(=O)n(C2CCC(=O)NC2=O)c2ccc(N3CCC(CN4CCN(c5cc(-c6cc(-c7cc8c([nH]7)CCNC8=O)ccn6)cc(C6CCCC6)c5)CC4)CC3)cc21` (centres unmarked) [Compound I-193]: on MK2 [1], the Dmax is less than 50% and the DC50 was greater than 100 nM. For the same compound, on MK2 [2], the “MK2 MSD SW 1353 24 h Dmax %” value is reported as “—” and the DC50 was greater than 100 nM.

With `C[C@@H]1CNc2c(sc3ccc4nc(-c5ccc(N6CCC(CN7CCN(c8ccc9c(c8)n(C)c(=O)n9C8CCC(=O)NC8=O)CC7)CC6)cc5F)ccc4c23)C(=O)N1` (some centres unmarked) [Compound I-306], on MK2 [1], the Dmax was greater than 75% and the DC50 was less than 1 nM. Besides, at MK2 [2], the Dmax was greater than 75% and the DC50 is less than 1 nM.
